Laboratory results reported in PubChem BioAssay (NCI).
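Test compounds were applied to cells in 96-well plates for 48 hours at 5 doses. GI50: concentration for 50% inhibition of growth. TGI: total growth inhibition.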

Columns and labels:
Experiment in all cases: growth of human tumour cells (NCI), 48 h
M14 melanoma = test system: M14 melanoma
IGROV1 ovarian = test system: IGROV1 ovarian
COLO 205 colon = test system: COLO 205 colon
T-47D breast = test system: T-47D breast
NCI-H460 lung = test system: NCI-H460 lung
UACC-257 melanoma = test system: UACC-257 melanoma
NCI-H23 lung = test system: NCI-H23 lung
EKVX NSCLC = test system: EKVX NSCLC
RXF 393 renal = test system: RXF 393 renal
KM12 colon = test system: KM12 colon

Cc1ccc(S(=O)(=O)c2ccc([N+](=O)[O-])o2)cc1
TGI (M14 melanoma): 3.82 µM | TGI (IGROV1 ovarian): 3.37 µM | TGI (COLO 205 colon): 2.27 µM | TGI (T-47D breast): 6.24 µM | TGI (NCI-H460 lung): 33.4 µM | TGI (UACC-257 melanoma): 3.61 µM | TGI (NCI-H23 lung): 13 µM | TGI (EKVX NSCLC): 7.79 µM | TGI (RXF 393 renal): 3.33 µM

CSCCCNC(=O)c1csc(-c2csc(CCNC(=O)CNC(=O)CNC(=O)CNC(=O)OC(C)(C)C)n2)n1
TGI (M14 melanoma): > 100 µM | TGI (IGROV1 ovarian): > 100 µM | TGI (KM12 colon): > 100 µM | TGI (COLO 205 colon): > 100 µM | TGI (NCI-H460 lung): > 100 µM | TGI (UACC-257 melanoma): > 100 µM | TGI (NCI-H23 lung): > 100 µM | TGI (EKVX NSCLC): > 100 µM | TGI (RXF 393 renal): > 100 µM

CC1=C[C@@H](C)C[C@]2(C)CC[C@H](O2)[C@]23CC[C@](C)(C[C@H](O2)[C@@H]2O[C@@](C)(CC2=O)[C@@H](O)[C@H]2CC[C@@]4(CCC[C@@H](O4)[C@H](C)C(=O)O[C@H]4C[C@H]([C@]5(O)OCC[C@H](C)[C@@H]5O)O[C@H]4C=C1)O2)O3
TGI (IGROV1 ovarian): 0.0154 µM | TGI (KM12 colon): > 10 µM | TGI (COLO 205 colon): 0.00188 µM | TGI (T-47D breast): > 10 µM | TGI (NCI-H460 lung): > 10 µM | TGI (NCI-H23 lung): 0.0826 µM | TGI (EKVX NSCLC): 0.128 µM | TGI (RXF 393 renal): 0.00747 µM

COc1ccc2c(c1OC)C(=O)O[C@@H]2[C@H]1c2cc3c(cc2CCN1C)OCO3
TGI (M14 melanoma): > 100 µM | TGI (IGROV1 ovarian): > 100 µM | TGI (KM12 colon): > 100 µM | TGI (COLO 205 colon): > 100 µM | TGI (T-47D breast): > 100 µM | TGI (NCI-H460 lung): > 100 µM | TGI (UACC-257 melanoma): > 100 µM | TGI (NCI-H23 lung): > 100 µM | TGI (EKVX NSCLC): > 100 µM

Nc1ccc(-c2nc3ccc(F)cc3s2)cc1
TGI (M14 melanoma): > 100 µM | GI50 (IGROV1 ovarian): 21.3 µM | TGI (IGROV1 ovarian): 71.9 µM | TGI (KM12 colon): 64.3 µM | TGI (COLO 205 colon): 33.2 µM | GI50 (NCI-H460 lung): 24.4 µM | TGI (NCI-H460 lung): > 100 µM | TGI (UACC-257 melanoma): > 100 µM | TGI (NCI-H23 lung): > 100 µM | TGI (EKVX NSCLC): > 100 µM

CNC(=S)N/N=C(\C)c1nc2ncccc2[nH]1
TGI (M14 melanoma): > 100 µM | TGI (IGROV1 ovarian): > 100 µM | TGI (KM12 colon): > 100 µM | TGI (COLO 205 colon): > 100 µM | TGI (T-47D breast): > 100 µM | TGI (NCI-H460 lung): > 100 µM | TGI (UACC-257 melanoma): > 100 µM | TGI (EKVX NSCLC): > 100 µM | TGI (RXF 393 renal): > 100 µM

CC1(C)CCCCCCCCCC(C)(CCCCCCCCCCCCO)C1=O (stereo not given)
TGI (IGROV1 ovarian): 33.7 µM | TGI (KM12 colon): 31.1 µM | TGI (COLO 205 colon): 62.7 µM | TGI (T-47D breast): 34 µM | TGI (NCI-H460 lung): 33.4 µM | TGI (UACC-257 melanoma): 29.9 µM | TGI (NCI-H23 lung): 33.7 µM | TGI (EKVX NSCLC): 34.8 µM | TGI (RXF 393 renal): 33.3 µM

N#CC1(c2ccccc2)CCN(C2(c3ccccc3)CCCCC2)CC1
TGI (M14 melanoma): > 100 µM | TGI (IGROV1 ovarian): > 100 µM | TGI (KM12 colon): > 100 µM | TGI (COLO 205 colon): > 100 µM | TGI (T-47D breast): > 100 µM | TGI (UACC-257 melanoma): > 100 µM | TGI (NCI-H23 lung): > 100 µM | TGI (EKVX NSCLC): > 100 µM | TGI (RXF 393 renal): > 100 µM

O=C1c2ccccc2-c2nc(-c3ccccc3)cc3c2c1nc1ccccc13
TGI (M14 melanoma): 18.3 µM | TGI (IGROV1 ovarian): 23 µM | TGI (KM12 colon): 50.3 µM | TGI (COLO 205 colon): 65.3 µM | TGI (T-47D breast): > 100 µM | TGI (UACC-257 melanoma): 30.6 µM | TGI (NCI-H23 lung): 16.1 µM | TGI (EKVX NSCLC): 88.3 µM | TGI (RXF 393 renal): > 100 µM

CCC(=O)NC(OCC1(CC)COC1)(C(F)(F)F)C(F)(F)F
TGI (M14 melanoma): > 100 µM | TGI (KM12 colon): > 100 µM | TGI (T-47D breast): > 100 µM | TGI (NCI-H460 lung): > 100 µM | TGI (UACC-257 melanoma): > 100 µM | TGI (NCI-H23 lung): > 100 µM | TGI (EKVX NSCLC): > 100 µM | TGI (RXF 393 renal): > 100 µM

CC(=O)Nc1ccc(C(=O)NN2C(=O)C(Cl)C2c2ccc(O)cc2)cc1 (stereo not given)
TGI (M14 melanoma): > 100 µM | TGI (IGROV1 ovarian): > 100 µM | TGI (COLO 205 colon): > 100 µM | TGI (NCI-H460 lung): > 100 µM | TGI (UACC-257 melanoma): > 100 µM | TGI (EKVX NSCLC): > 100 µM | TGI (RXF 393 renal): > 100 µM

CN(/N=N/c1nc[nH]c1C(N)=O)C1CCCCC1
TGI (M14 melanoma): > 100 µM | TGI (IGROV1 ovarian): > 100 µM | TGI (KM12 colon): > 100 µM | TGI (COLO 205 colon): > 100 µM | TGI (NCI-H460 lung): > 100 µM | TGI (UACC-257 melanoma): > 100 µM | TGI (NCI-H23 lung): > 100 µM | TGI (EKVX NSCLC): > 100 µM | TGI (RXF 393 renal): > 100 µM

C=CC(C)(C)c1cc([C@@H]2COc3cc(O)ccc3C2=O)c(O)c(O)c1OC
TGI (M14 melanoma): 46.5 µM | TGI (KM12 colon): 40.7 µM | TGI (COLO 205 colon): 63 µM | TGI (T-47D breast): 62.3 µM | TGI (NCI-H460 lung): > 100 µM | TGI (UACC-257 melanoma): > 100 µM | TGI (NCI-H23 lung): 34 µM | TGI (EKVX NSCLC): 99.4 µM | TGI (RXF 393 renal): 21.1 µM

O/N=C1/C2CC3CC1(c1ccccc1)CC(/C3=N/O)/C2=N\O (stereo not given)
TGI (M14 melanoma): > 100 µM | TGI (KM12 colon): > 100 µM | TGI (COLO 205 colon): > 100 µM | TGI (T-47D breast): > 100 µM | TGI (NCI-H460 lung): > 100 µM | TGI (UACC-257 melanoma): > 100 µM | TGI (NCI-H23 lung): > 100 µM | TGI (EKVX NSCLC): > 100 µM | TGI (RXF 393 renal): > 100 µM

CCNc1ncnc2c1nnn2CC
TGI (M14 melanoma): > 100 µM | TGI (IGROV1 ovarian): > 100 µM | TGI (KM12 colon): > 100 µM | TGI (COLO 205 colon): > 100 µM | TGI (T-47D breast): > 100 µM | TGI (UACC-257 melanoma): > 100 µM | TGI (NCI-H23 lung): > 100 µM | TGI (EKVX NSCLC): > 100 µM | TGI (RXF 393 renal): > 100 µM

O=S(=O)(O)c1cc(O)c2c(O)c(N=Nc3cccc4ccccc34)c(S(=O)(=O)O)cc2c1
TGI (M14 melanoma): > 100 µM | TGI (IGROV1 ovarian): > 100 µM | TGI (KM12 colon): > 100 µM | TGI (COLO 205 colon): > 100 µM | TGI (T-47D breast): > 100 µM | TGI (UACC-257 melanoma): > 100 µM | TGI (NCI-H23 lung): > 100 µM | TGI (EKVX NSCLC): > 100 µM | TGI (RXF 393 renal): > 100 µM

C#CCSc1nc(N)c2ncn(C3OC(COP(=O)(O)O)C(O)C3O)c2n1 (stereo not given)
TGI (M14 melanoma): > 239 µM | TGI (IGROV1 ovarian): > 239 µM | TGI (KM12 colon): > 239 µM | TGI (COLO 205 colon): > 239 µM | TGI (NCI-H460 lung): > 239 µM | TGI (UACC-257 melanoma): > 239 µM | TGI (NCI-H23 lung): > 239 µM | TGI (EKVX NSCLC): > 239 µM

C/C(=C\Cc1cc(O)ccc1O)CCc1c(C)c(O)c(O)c(C=O)c1C
TGI (M14 melanoma): 77.3 µM | TGI (IGROV1 ovarian): 41.3 µM | TGI (KM12 colon): 44.3 µM | TGI (COLO 205 colon): 34.4 µM | TGI (NCI-H460 lung): 53.3 µM | TGI (NCI-H23 lung): 44.7 µM | TGI (EKVX NSCLC): > 100 µM | TGI (RXF 393 renal): 43.8 µM

N#Cc1c(Nc2nc3ccccc3s2)c2ccccc2n2c1nc1ccccc12
TGI (M14 melanoma): > 100 µM | TGI (IGROV1 ovarian): > 100 µM | TGI (KM12 colon): > 100 µM | TGI (COLO 205 colon): > 100 µM | TGI (T-47D breast): > 100 µM | TGI (NCI-H460 lung): > 100 µM | TGI (UACC-257 melanoma): > 100 µM | TGI (NCI-H23 lung): > 100 µM | TGI (EKVX NSCLC): > 100 µM

COc1cc(/C=N\NC(=O)C[N+](C)(C)C)cc(OC)c1OC
TGI (M14 melanoma): > 10 µM | TGI (IGROV1 ovarian): > 10 µM | TGI (KM12 colon): > 10 µM | TGI (COLO 205 colon): > 10 µM | TGI (T-47D breast): > 10 µM | TGI (UACC-257 melanoma): > 10 µM | TGI (NCI-H23 lung): > 10 µM

CCOC(=O)c1c(N2CCOCC2)[nH]c(=O)c(C(c2cccs2)c2c(O)c(C(=O)OCC)c(N3CCOCC3)[nH]c2=O)c1O
TGI (M14 melanoma): > 100 µM | TGI (KM12 colon): > 100 µM | TGI (COLO 205 colon): > 100 µM | TGI (T-47D breast): > 100 µM | TGI (NCI-H460 lung): > 100 µM | TGI (UACC-257 melanoma): > 100 µM | TGI (NCI-H23 lung): > 100 µM | TGI (EKVX NSCLC): > 100 µM | TGI (RXF 393 renal): > 100 µM

CC(=O)O[C@H]1CN(S(=O)(=O)c2ccc(C)cc2)C[C@@H]1C1CCCCC1
TGI (M14 melanoma): 37.3 µM | TGI (IGROV1 ovarian): 40.9 µM | TGI (KM12 colon): 36.3 µM | TGI (COLO 205 colon): > 100 µM | TGI (T-47D breast): > 100 µM | TGI (NCI-H460 lung): > 100 µM | TGI (UACC-257 melanoma): 48.3 µM | TGI (NCI-H23 lung): > 100 µM | TGI (EKVX NSCLC): 52.8 µM

Cc1cc(S(=O)(=O)Nc2nc3ccccc3n2-c2ccccc2)c(S)cc1Cl
TGI (M14 melanoma): > 100 µM | TGI (IGROV1 ovarian): > 100 µM | TGI (KM12 colon): > 100 µM | TGI (COLO 205 colon): > 100 µM | TGI (T-47D breast): > 100 µM | TGI (NCI-H460 lung): > 100 µM | TGI (UACC-257 melanoma): > 100 µM | TGI (EKVX NSCLC): > 100 µM | TGI (RXF 393 renal): > 100 µM
